What follows are molecules tested on ducksalad (assay: Test C flooded paddy test). Conditions: 62 g ai/ha, scale 0 to 100.
Format: in vivo, Heteranthera limosa

Compound | Ducksalad plant response rating
CCC1=NN(C(C)(C)C)CC1C(=O)Nc1cc(C(=O)N(C)CC)ccc1F (racemic) [Compound 342] | 50

Same assay, conditions: 125 g ai/ha, scale 0 to 100 (0 no effect, 100 complete control)

Compound | Ducksalad plant response rating
CCC1=NN(C(C)(C)C)CC1C(=O)Nc1cc(C(=O)N(C)CC)ccc1F (racemic) [Compound 342] | 50

Same assay, conditions: 250 g ai/ha, scale of 0 to 100, 0 is no effect, 100 is complete control

Compound | Ducksalad plant response rating
CCC1=NN(C(C)(C)C)CC1C(=O)Nc1cc(C(=O)N(C)CC)ccc1F (racemic) [Compound 342] | 80

Same assay, conditions: 500 g ai/ha, visual rating after 12 to 14 days, scale 0 to 100 (0 no effect, 100 complete control)

Compound | Plant response rating, Ducksalad
CCC1=NN(C(C)(C)C)CC1C(=O)Nc1cc(C(=O)N(C)CC)ccc1F (racemic) [Compound 342] | 80

These molecules were tested on common ragweed (assay: Test C pre-/postemergence herbicide test). Conditions: 62 g ai/ha; preemergence; scale 0 to 100.
Format: in vivo, Ambrosia elatior
Design: key to Plant response rating, Ragweed: 0 = no effect, 100 = complete control
Method in brief: (§1)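 Pre- and postemergence application, solvent/surfactant formulation; post at 1- to 4-leaf stage (2–18 cm). Greenhouse 12–14 d. Visual rating vs controls, 0 = no effect, 100 = complete control.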

Compound | Plant response rating, Ragweed
CCC1=NN(C(C)(C)C)CC1C(=O)Nc1cc(C(=O)N(C)CC)ccc1F (racemic) [Compound 342] | 55

Same assay, conditions: 125 g ai/ha; preemergence

Compound | Plant response rating (0 = no effect, 100 = complete control), Ragweed
CCC1=NN(C(C)(C)C)CC1C(=O)Nc1cc(C(=O)N(C)CC)ccc1F (racemic) [Compound 342] | 95

Same assay, conditions: 250 g ai/ha; scale 0-100; preemergence

Compound | Plant response rating, Ragweed
CCC1=NN(C(C)(C)C)CC1C(=O)Nc1cc(C(=O)N(C)CC)ccc1F (racemic) [Compound 342] | 100

Same assay, conditions: 500 g ai/ha; scale 0 to 100 (0 no effect, 100 complete control); visual, 12 to 14 days; preemergence

Compound | Plant response rating, Ragweed
CCC1=NN(C(C)(C)C)CC1C(=O)Nc1cc(C(=O)N(C)CC)ccc1F (racemic) [Compound 342] | 100

Each molecule was assayed on pigweed (assay: Test C pre-/postemergence herbicide test). Conditions: 62 g ai/ha; preemergence; scale 0 to 100.
Format: in vivo, Amaranthus retroflexus
Method in brief: as §1

Compound | Plant response rating, Pigweed
CCC1=NN(C(C)(C)C)CC1C(=O)Nc1cc(C(=O)N(C)CC)ccc1F (racemic) [Compound 342] | 80

Same assay, conditions: 125 g ai/ha; preemergence

Compound | Plant response rating (0 = no effect, 100 = complete control), Pigweed
CCC1=NN(C(C)(C)C)CC1C(=O)Nc1cc(C(=O)N(C)CC)ccc1F (racemic) [Compound 342] | 90

Same assay, conditions: 250 g ai/ha; scale 0-100; preemergence

Compound | Plant response rating, Pigweed
CCC1=NN(C(C)(C)C)CC1C(=O)Nc1cc(C(=O)N(C)CC)ccc1F (racemic) [Compound 342] | 100

Same assay, conditions: 500 g ai/ha; scale 0 to 100 (0 no effect, 100 complete control); visual, 12 to 14 days; preemergence

Compound | Plant response rating, Pigweed
CCC1=NN(C(C)(C)C)CC1C(=O)Nc1cc(C(=O)N(C)CC)ccc1F (racemic) [Compound 342] | 100

These molecules were tested on yellow nutsedge (assay: Test C pre-/postemergence herbicide test). Conditions: 62 g ai/ha; preemergence; scale 0 to 100.
Format: in vivo, Cyperus esculentus
Method in brief: as §1

Compound | Plant response rating, Nutsedge, Yellow
CCC1=NN(C(C)(C)C)CC1C(=O)Nc1cc(C(=O)N(C)CC)ccc1F (racemic) [Compound 342] | 0

Same assay, conditions: 125 g ai/ha; preemergence

Compound | Plant response rating (0 = no effect, 100 = complete control), Nutsedge, Yellow
CCC1=NN(C(C)(C)C)CC1C(=O)Nc1cc(C(=O)N(C)CC)ccc1F (racemic) [Compound 342] | 0

Same assay, conditions: 250 g ai/ha; scale 0-100; preemergence

Compound | Plant response rating, Nutsedge, Yellow
CCC1=NN(C(C)(C)C)CC1C(=O)Nc1cc(C(=O)N(C)CC)ccc1F (racemic) [Compound 342] | 40

Same assay, conditions: 500 g ai/ha; scale 0 to 100 (0 no effect, 100 complete control); visual, 12 to 14 days; preemergence

Compound | Plant response rating, Nutsedge, Yellow
CCC1=NN(C(C)(C)C)CC1C(=O)Nc1cc(C(=O)N(C)CC)ccc1F (racemic) [Compound 342] | 60

The molecules below were run on goosegrass (assay: Test C pre-/postemergence herbicide test). Conditions: 62 g ai/ha; preemergence; scale 0 to 100.
Format: in vivo, Eleusine indica
Method in brief: as §1

Compound | Plant response rating, Goosegrass
CCC1=NN(C(C)(C)C)CC1C(=O)Nc1cc(C(=O)N(C)CC)ccc1F (racemic) [Compound 342] | 60

Same assay, conditions: 125 g ai/ha; preemergence

Compound | Plant response rating (0 = no effect, 100 = complete control), Goosegrass
CCC1=NN(C(C)(C)C)CC1C(=O)Nc1cc(C(=O)N(C)CC)ccc1F (racemic) [Compound 342] | 65

Same assay, conditions: 250 g ai/ha; scale 0-100; preemergence

Compound | Plant response rating, Goosegrass
CCC1=NN(C(C)(C)C)CC1C(=O)Nc1cc(C(=O)N(C)CC)ccc1F (racemic) [Compound 342] | 65

Same assay, conditions: 500 g ai/ha; scale 0 to 100 (0 no effect, 100 complete control); visual, 12 to 14 days; preemergence

Compound | Plant response rating, Goosegrass
CCC1=NN(C(C)(C)C)CC1C(=O)Nc1cc(C(=O)N(C)CC)ccc1F (racemic) [Compound 342] | 90

The molecules below were run on large crabgrass (assay: Test C pre-/postemergence herbicide test). Conditions: 62 g ai/ha; preemergence; scale 0 to 100.
Format: in vivo, Digitaria sanguinalis
Method in brief: as §1

Compound | Plant response rating, Crabgrass, Large
CCC1=NN(C(C)(C)C)CC1C(=O)Nc1cc(C(=O)N(C)CC)ccc1F (racemic) [Compound 342] | 60

Same assay, conditions: 125 g ai/ha; preemergence

Compound | Plant response rating (0 = no effect, 100 = complete control), Crabgrass, Large
CCC1=NN(C(C)(C)C)CC1C(=O)Nc1cc(C(=O)N(C)CC)ccc1F (racemic) [Compound 342] | 60

Same assay, conditions: 250 g ai/ha; scale 0-100; preemergence

Compound | Plant response rating, Crabgrass, Large
CCC1=NN(C(C)(C)C)CC1C(=O)Nc1cc(C(=O)N(C)CC)ccc1F (racemic) [Compound 342] | 70

Same assay, conditions: 500 g ai/ha; scale 0 to 100 (0 no effect, 100 complete control); visual, 12 to 14 days; preemergence

Compound | Plant response rating, Crabgrass, Large
CCC1=NN(C(C)(C)C)CC1C(=O)Nc1cc(C(=O)N(C)CC)ccc1F (racemic) [Compound 342] | 85

The molecules below were run on barnyardgrass (assay: Test C flooded paddy test). Conditions: 62 g ai/ha, scale 0 to 100 (0 no effect, 100 complete control).
Format: in vivo, Echinochloa crus-galli
Method in brief: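 After a postemergence application at 1 to 4 leaves (plants 2–18 cm high), or at 2 leaves for barnyardgrass in flooded paddy, plants stayed in the greenhouse for 12 to 14 days. Damage was then judged visually relative to control plants, with 100 indicating complete control.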

Compound | Barnyardgrass plant response rating
CCC1=NN(C(C)(C)C)CC1C(=O)Nc1cc(C(=O)N(C)CC)ccc1F (racemic) [Compound 342] | 20

Same assay, conditions: 125 g ai/ha, scale 0 to 100 (0 no effect, 100 complete control)

Compound | Barnyardgrass plant response rating
CCC1=NN(C(C)(C)C)CC1C(=O)Nc1cc(C(=O)N(C)CC)ccc1F (racemic) [Compound 342] | 20

Same assay, conditions: 250 g ai/ha, scale of 0 to 100, 0 is no effect, 100 is complete control

Compound | Barnyardgrass plant response rating
CCC1=NN(C(C)(C)C)CC1C(=O)Nc1cc(C(=O)N(C)CC)ccc1F (racemic) [Compound 342] | 50

Same assay, conditions: 500 g ai/ha, visual rating after 12 to 14 days, scale 0 to 100 (0 no effect, 100 complete control)

Compound | Plant response rating, Barnyardgrass
CCC1=NN(C(C)(C)C)CC1C(=O)Nc1cc(C(=O)N(C)CC)ccc1F (racemic) [Compound 342] | 60

The molecules below were run on giant foxtail (assay: Test C pre-/postemergence herbicide test). Conditions: 62 g ai/ha; preemergence; scale 0 to 100.
Format: in vivo, Setaria faberi
Method in brief: as §1

Compound | Plant response rating, Foxtail, Giant
CCC1=NN(C(C)(C)C)CC1C(=O)Nc1cc(C(=O)N(C)CC)ccc1F (racemic) [Compound 342] | 0

Same assay, conditions: 125 g ai/ha; preemergence

Compound | Plant response rating (0 = no effect, 100 = complete control), Foxtail, Giant
CCC1=NN(C(C)(C)C)CC1C(=O)Nc1cc(C(=O)N(C)CC)ccc1F (racemic) [Compound 342] | 40

Same assay, conditions: 250 g ai/ha; scale 0-100; preemergence

Compound | Plant response rating, Foxtail, Giant
CCC1=NN(C(C)(C)C)CC1C(=O)Nc1cc(C(=O)N(C)CC)ccc1F (racemic) [Compound 342] | 55

Same assay, conditions: 500 g ai/ha; scale 0 to 100 (0 no effect, 100 complete control); visual, 12 to 14 days; preemergence

Compound | Plant response rating, Foxtail, Giant
CCC1=NN(C(C)(C)C)CC1C(=O)Nc1cc(C(=O)N(C)CC)ccc1F (racemic) [Compound 342] | 70

The molecules below were run on soybean (assay: Test C pre-/postemergence herbicide test). Conditions: 62 g ai/ha; preemergence; scale 0 to 100.
Format: in vivo, Glycine max
Method in brief: as §1

Compound | Plant response rating, Soybean
CCC1=NN(C(C)(C)C)CC1C(=O)Nc1cc(C(=O)N(C)CC)ccc1F (racemic) [Compound 342] | 10

Same assay, conditions: 125 g ai/ha; preemergence

Compound | Plant response rating (0 = no effect, 100 = complete control), Soybean
CCC1=NN(C(C)(C)C)CC1C(=O)Nc1cc(C(=O)N(C)CC)ccc1F (racemic) [Compound 342] | 60

Same assay, conditions: 250 g ai/ha; scale 0-100; preemergence

Compound | Plant response rating, Soybean
CCC1=NN(C(C)(C)C)CC1C(=O)Nc1cc(C(=O)N(C)CC)ccc1F (racemic) [Compound 342] | 100

Same assay, conditions: 500 g ai/ha; scale 0 to 100 (0 no effect, 100 complete control); visual, 12 to 14 days; preemergence

Compound | Plant response rating, Soybean
CCC1=NN(C(C)(C)C)CC1C(=O)Nc1cc(C(=O)N(C)CC)ccc1F (racemic) [Compound 342] | 100

These molecules were tested on velvetleaf (assay: Test C pre-/postemergence herbicide test). Conditions: 62 g ai/ha; preemergence; scale 0 to 100.
Format: in vivo, Abutilon theophrasti
Method in brief: as §1

Compound | Plant response rating, Velvetleaf
CCC1=NN(C(C)(C)C)CC1C(=O)Nc1cc(C(=O)N(C)CC)ccc1F (racemic) [Compound 342] | 50

Same assay, conditions: 125 g ai/ha; preemergence

Compound | Plant response rating (0 = no effect, 100 = complete control), Velvetleaf
CCC1=NN(C(C)(C)C)CC1C(=O)Nc1cc(C(=O)N(C)CC)ccc1F (racemic) [Compound 342] | 60

Same assay, conditions: 250 g ai/ha; scale 0-100; preemergence

Compound | Plant response rating, Velvetleaf
CCC1=NN(C(C)(C)C)CC1C(=O)Nc1cc(C(=O)N(C)CC)ccc1F (racemic) [Compound 342] | 100

Same assay, conditions: 500 g ai/ha; scale 0 to 100 (0 no effect, 100 complete control); visual, 12 to 14 days; preemergence

Compound | Plant response rating, Velvetleaf
CCC1=NN(C(C)(C)C)CC1C(=O)Nc1cc(C(=O)N(C)CC)ccc1F (racemic) [Compound 342] | 100

Source: patent publication US20060069132A1, “Azolecarboxamide herbicides” (priority 2004, published 2006)
